According to US12453779B2, “Chemoselective thiol-conjugation with alkene or alkyne-phosphonothiolates and -phosphonates” (FORSCHUNGSVERBUND BERLIN E.V., priority 2018, dated 2025):

Tested on: CD30-overexpressing cell line Karpas 299
Assay: Cell based antiproliferation (resazurin) assay, Karpas 299
Settings: Karpas 299, 96 hours of treatment, Brentuximab-NA3 DAR=3.15

Brentuximab: CD30-addressing antibody
growth inhibition (cell viability): does not show growth inhibition
